Experimental data reported in ChEMBL document CHEMBL3351924, “Detailed analysis and follow-up studies of a high-throughput screening for indoleamine 2,3-dioxygenase 1 (IDO1) inhibitors” (Eur J Med Chem, 2014).
Converted amounts (≈) assume the structure as drawn.

How the values were obtained:
[1] = target: T1, Indoleamine 2,3-dioxygenase 1 (Homo sapiens, UniProt P14902); assay: Inhibition of IDO1 (unknown origin) using L-tryptophan substrate incubated for 60 mins in presence of 0.01% Triton-X by HPLC
[2] = Solubility of the compound in pH 6.5 phosphate buffer containing 5% DMSO
[3] = target: T1, Indoleamine 2,3-dioxygenase 1; assay: Inhibition of IDO1 (unknown origin) using L-tryptophan substrate incubated for 60 mins by HPLC
[4] = target: Indoleamine 2,3-dioxygenase 1 (Mus musculus, UniProt P28776); assay: Inhibition of mouse IDO1 expressed in mouse P815B cells using L-tryptophan substrate incubated for 18 hrs by HPLC based cellular assay; assay type: cell-based; conditions: p815b
[5] = target: Tryptophan 2,3-dioxygenase (Mus musculus, UniProt P48776); assay: Inhibition of mouse TDO expressed in mouse P815B cells using L-tryptophan substrate incubated for 24 hrs by HPLC based cellular assay; assay type: cell-based; conditions: p815b
[6] = Cytotoxicity against mouse P815B cells after 24 hrs by MTS/PMS assay
[7] = target: T1, Indoleamine 2,3-dioxygenase 1; assay: Inhibition of IDO1 (unknown origin) using L-tryptophan substrate incubated for 60 mins in presence of 5 mM GSH by HPLC
[8] = phosphate buffer containing 5% DMSO

T1 sequence (P14902 whole entry): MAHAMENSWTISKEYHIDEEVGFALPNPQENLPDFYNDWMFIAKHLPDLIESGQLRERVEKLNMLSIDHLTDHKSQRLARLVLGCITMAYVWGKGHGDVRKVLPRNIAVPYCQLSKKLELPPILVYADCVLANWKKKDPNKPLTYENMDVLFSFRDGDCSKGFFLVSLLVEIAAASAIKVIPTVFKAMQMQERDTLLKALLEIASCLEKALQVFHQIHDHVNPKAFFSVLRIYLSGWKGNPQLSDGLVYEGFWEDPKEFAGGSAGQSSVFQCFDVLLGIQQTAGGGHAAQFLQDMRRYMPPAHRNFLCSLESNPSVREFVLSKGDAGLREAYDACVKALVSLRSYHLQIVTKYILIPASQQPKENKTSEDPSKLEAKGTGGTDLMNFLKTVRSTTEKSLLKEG
Sequence of Tryptophan 2,3-dioxygenase (P48776 whole entry): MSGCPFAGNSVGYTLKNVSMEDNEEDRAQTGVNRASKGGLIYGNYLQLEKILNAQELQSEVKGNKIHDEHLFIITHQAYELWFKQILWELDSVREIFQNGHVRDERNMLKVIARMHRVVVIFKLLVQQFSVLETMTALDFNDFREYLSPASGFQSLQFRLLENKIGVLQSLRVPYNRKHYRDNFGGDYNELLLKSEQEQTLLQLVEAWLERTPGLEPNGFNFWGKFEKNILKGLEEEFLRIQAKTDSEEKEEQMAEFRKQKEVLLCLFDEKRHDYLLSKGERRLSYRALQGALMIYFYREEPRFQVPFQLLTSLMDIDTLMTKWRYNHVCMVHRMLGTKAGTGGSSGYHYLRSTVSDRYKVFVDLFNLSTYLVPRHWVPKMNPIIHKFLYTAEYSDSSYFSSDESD
Sequence of Indoleamine 2,3-dioxygenase 1 (Mus musculus, UniProt P28776) (P28776 whole entry): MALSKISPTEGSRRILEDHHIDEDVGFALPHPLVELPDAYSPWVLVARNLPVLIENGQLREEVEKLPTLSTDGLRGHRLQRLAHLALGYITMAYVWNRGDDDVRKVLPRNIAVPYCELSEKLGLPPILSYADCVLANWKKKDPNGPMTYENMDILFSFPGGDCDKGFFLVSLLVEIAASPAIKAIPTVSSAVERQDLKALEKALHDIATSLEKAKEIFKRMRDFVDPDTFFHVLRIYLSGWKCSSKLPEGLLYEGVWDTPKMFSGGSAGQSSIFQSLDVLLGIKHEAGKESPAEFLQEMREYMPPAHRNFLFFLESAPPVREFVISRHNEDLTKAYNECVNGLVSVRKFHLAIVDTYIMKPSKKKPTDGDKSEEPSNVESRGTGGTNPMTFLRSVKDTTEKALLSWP

Clc1ccc(COCCn2ccnc2)c(Cl)c1
IC50 [1]: Not Active | solubility [2, 8]: > 1000 µM

Clc1ccc(CCn2ccnc2)c(Cl)c1
IC50 ([1]; read-out: IC50): 820 µM | solubility [2, 8]: > 1000 µM

COC(Cn1ccnc1)c1ccc(Cl)cc1Cl (configuration not stated)
IC50 ([1]; read-out: IC50): 140 µM | solubility [2, 8]: > 1000 µM

Clc1ccc(C(Cn2ccnc2)OCc2cccnc2)c(Cl)c1 (configuration not stated)
IC50 ([1]; read-out: IC50): 84 µM | solubility [2, 8]: > 1000 µM

OC(Cn1ccnc1)c1ccccc1Cl (configuration not stated)
IC50 ([1]; read-out: IC50): 200 µM | solubility [2, 8]: > 1000 µM

OC(Cn1ccnc1)c1ccc(Cl)c(Cl)c1 (configuration not stated)
IC50 ([1]; read-out: IC50): 830 µM | solubility [2, 8]: > 1000 µM

OC(Cn1ccnc1)c1cccc(Cl)c1 (configuration not stated)
IC50 [1]: Not Active | solubility [2, 8]: > 1000 µM

OC(Cn1ccnc1)c1c(Cl)cccc1Cl (configuration not stated)
IC50 [1]: Not Active | solubility [2, 8]: > 1000 µM

Oc1ccccc1C(O)Cn1ccnc1 (configuration not stated)
IC50 [1]: Not Active | solubility [2, 8]: > 1000 µM

OC(Cc1c[nH]nn1)c1ccc(Cl)cc1Cl (configuration not stated)
IC50 [1]: Not Active | solubility [2, 8]: > 1000 µM

Clc1ccc(Cn2ccnc2)c(Cl)c1
IC50 ([1]; read-out: IC50): 310 µM | solubility [2, 8]: > 1000 µM

Clc1ccc(-n2ccnc2)c(Cl)c1
IC50 [1]: Not Active | solubility [2, 8]: > 1000 µM

O=C(Cn1ccnc1)c1ccc(Cl)cc1Cl
IC50 [1]: Not Active | solubility [2, 8]: > 1000 µM

c1ccc(CCn2ccnc2)cc1
IC50 [1]: Not Active | solubility [2, 8]: > 1000 µM

O=c1ccsn1-c1cccc(Cl)c1F
IC50 ([3]; read-out: IC50): 11 µM | IC50 ([1]; read-out: IC50): 4.8 µM | IC50 [4]: Not Active | IC50 [5]: Not Active | CC50 at 24 h ([6]; P815B cells): 10 µM | IC50 [7]: 200 µM | solubility [2, 8]: 1000 µM (≈ 230 µg/mL)

CCN(CC)C(=S)SSC(=S)N(CC)CC
IC50 [3]: Not Active | solubility [2, 8]: 100 µM (≈ 29.7 µg/mL)

c1ccc(Cn2ccnc2)cc1 [BENZYLIMIDAZOLE]
IC50 [1]: Not Active | solubility [2, 8]: > 1000 µM

c1ccc(-c2ccc(C(c3ccccc3)n3ccnc3)cc2)cc1 (configuration not stated) [BIFONAZOLE]
IC50 ([3]; read-out: IC50): 23 µM | IC50 [4]: Not Active | IC50 [5]: Not Active | CC50 at 24 h ([6]; P815B cells): 10 µM | solubility [2, 8]: 25 µM (≈ 7.76 µg/mL)

Clc1ccc(CCC(Cn2ccnc2)Sc2c(Cl)cccc2Cl)cc1 (configuration not stated) [BUTOCONAZOLE]
IC50 [3]: Not Active | solubility [2, 8]: 10 µM (≈ 4.12 µg/mL)

Cc1cc(C2CCCCC2)n(O)c(=O)c1 [CICLOPIROX]
IC50 [3]: Not Active | solubility ([2]; buffer): 1000 µM (≈ 207 µg/mL)

Clc1ccc(COC(Cn2ccnc2)c2ccc(Cl)cc2Cl)cc1 (configuration not stated) [ECONAZOLE]
IC50 [3]: 8.1 µM | IC50 [4]: Not Active | IC50 [5]: Not Active | CC50 at 24 h ([6]; P815B cells): 10 µM | solubility [2, 8]: 10 µM (≈ 3.82 µg/mL)

C=CCOC(Cn1ccnc1)c1ccc(Cl)cc1Cl (configuration not stated) [ENILCONAZOLE]
IC50 ([3]; read-out: IC50): 23 µM | IC50 [4]: Not Active | IC50 [5]: Not Active | CC50 at 24 h ([6]; P815B cells): > 25 µM | solubility [2, 8]: 10 µM (≈ 2.97 µg/mL)

Clc1ccc(C(Cn2ccnc2)OCc2c(Cl)cccc2Cl)c(Cl)c1 (configuration not stated) [ISOCONAZOLE]
IC50 ([3]; read-out: IC50): 23 µM | IC50 [4]: Not Active | IC50 [5]: Not Active | CC50 at 24 h ([6]; P815B cells): 10 µM | solubility [2, 8]: 50 µM (≈ 20.8 µg/mL)

CC(=O)N1CCN(c2ccc(OCC3COC(Cn4ccnc4)(c4ccc(Cl)cc4Cl)O3)cc2)CC1 (configuration not stated) [KETOCONAZOLE]
IC50 ([3]; read-out: IC50): 32 µM | IC50 ([1]; read-out: IC50): 25 µM | IC50 [4]: Not Active | IC50 [5]: Not Active | CC50 at 24 h ([6]; P815B cells): 25 µM | solubility [2, 8]: 100 µM (≈ 53.1 µg/mL)

CCOC(=O)C1=C(C)NC(C)=C(C(=O)OCC)C1c1ccccc1/C=C/C(=O)OC(C)(C)C [LACIDIPINE]
solubility [2, 8]: 1 µM (≈ 0.456 µg/mL)

COc1cccc(N(C)C(=S)Oc2ccc3c(c2)CCCC3)n1 [LIRANAFTATE]
solubility [2, 8]: 12.5 µM (≈ 4.11 µg/mL)

Sc1ncnc2nc[nH]c12 [MERCAPTOPURINE ANHYDROUS]
IC50 [3]: Not Active | solubility [2, 8]: 1000 µM (≈ 152 µg/mL)

Clc1ccc(COC(Cn2ccnc2)c2ccc(Cl)cc2Cl)c(Cl)c1 (configuration not stated) [MICONAZOLE]
IC50 ([3]; read-out: IC50): 6.7 µM | IC50 ([1]; read-out: IC50): 3.8 µM | IC50 [4]: Not Active | IC50 [5]: Not Active | CC50 at 24 h ([6]; p815b): 10 µM | solubility [2, 8]: 10 µM (≈ 4.16 µg/mL)

COC(=O)C1=C(C)NC(C)=C(C(=O)OC)C1c1ccccc1[N+](=O)[O-] [NIFEDIPINE]
IC50 [3]: Not Active

COC(=O)C1=C(C)NC(C)=C(C(=O)OCC(C)C)C1c1ccccc1[N+](=O)[O-] (configuration not stated) [NISOLDIPINE]
IC50 [3]: Not Active | solubility [2, 8]: 50 µM (≈ 19.4 µg/mL)

Clc1ccc(CO/N=C(\Cn2ccnc2)c2ccc(Cl)cc2Cl)c(Cl)c1 [OXICONAZOLE]
IC50 ([3]; read-out: IC50): 28 µM | IC50 [4]: Not Active | IC50 [5]: Not Active | CC50 at 24 h ([6]; p815b): 10 µM | solubility [2, 8]: 20 µM (≈ 8.58 µg/mL)

NNCCc1ccccc1 [PHENELZINE]
IC50 ([3]; read-out: IC50): 14 µM | IC50 [4]: Not Active | IC50 [5]: Not Active | CC50 at 24 h ([6]; p815b): > 25 µM | solubility ([2]; buffer): 1000 µM (≈ 136 µg/mL)

CC(C)(N)Cc1ccccc1 [PHENTERMINE]
solubility [2, 8]: 1000 µM (≈ 149 µg/mL)

COCCCOc1ccnc(C[S+]([O-])c2nc3ccccc3[nH]2)c1C (configuration not stated) [RABEPRAZOLE]
IC50 [3]: Not Active | solubility [2, 8]: 1000 µM (≈ 359 µg/mL)

O=C(c1ccc(OCCN2CCCCC2)cc1)c1c(-c2ccc(O)cc2)sc2cc(O)ccc12 [RALOXIFENE]
solubility [2, 8]: 50 µM (≈ 23.7 µg/mL)

Clc1ccc(C(Cn2ccnc2)OCc2csc3c(Cl)cccc23)c(Cl)c1 (configuration not stated) [SERTACONAZOLE]
IC50 ([3]; read-out: IC50): 8.4 µM | IC50 [4]: Not Active | IC50 [5]: Not Active | CC50 at 24 h ([6]; P815B cells): 10 µM | solubility [2, 8]: 10 µM (≈ 4.38 µg/mL)

Clc1ccc(CSC(Cn2ccnc2)c2ccc(Cl)cc2Cl)cc1 (configuration not stated) [SULCONAZOLE]
IC50 [4]: Not Active | IC50 [5]: Not Active | CC50 at 24 h ([6]; p815b): 10 µM | solubility [2, 8]: 10 µM (≈ 3.98 µg/mL)

Clc1ccc(C(Cn2ccnc2)OCc2ccsc2Cl)c(Cl)c1 (configuration not stated) [TIOCONAZOLE]
IC50 [3]: Not Active | solubility ([2]; buffer): 10 µM (≈ 3.88 µg/mL)
